Data published in PubChem BioAssay AID1963870 (Molecular Pharmacology Branch, DTP, NCI, 2024).

Test system: 292921-168-R-J2-PDC KRAS tumor spheroid viability
Assay: Anticancer human tumor 292921-168-R-J2-PDC patient-derived pancreatic carcinoma cell line growth inhibition [KRAS2]
Conditions: spheroids with HUVEC and MSC; for IC50: curve of first compound; for viability, T/C: stronger effect = lower value
Excerpt: Multicellular complex tumor spheroid response to RAS pathway inhibitors in combination with a targeted agents in patient-derived cell lines with oncogenic KRAS variants from multiple cancer types
A high-throughput screen of multi-cell type tumor spheroids was designed to identify active combinations of targeted small molecules and KRAS pathway inhibitors. Complex spheroids include a stromal component modeled by human endothelial cells (HUVEC) and fibroblasts modeled by human mesenchymal stem cells (MSCs). The concentration ranges selected for each drug and investigational agent were based upon clinically achievable concentrations if the clinical Cmax of the agent was known.
Compounds. The drugs and investigational agents: BI-3406 (NSC825286), BAY-293 (NSC824723), batoprotafib (TNO155; NSC825523), sotorasib (AMG 510; NSC818433), MRTX1257 (NSC819558), elimusertib (BAY 1895344; NSC800525), molibresib (GSK525762; NSC774829), temuterkib (LY3214996; NSC803410), venetoclax (NSC766270), alisertib (NSC759677), olaparib (NSC753686), talazoparib (NSC767125), erdafitinib (NSC781556), ipatasertib (NSC767898), cabozantinib (NSC761068), nintedanib (NSC756659), abemaciclib (NSC768073), docetaxel (NSC628503), trametinib (NSC758246), and sapanisertib (NSC764658) were obtained from the National Cancer Institute (NCI) Developmental Therapeutics Program Chemical Repository. The FDA-approved anticancer drug set is available from the Developmental Therapeutics Program. […] The stock solutions were prepared in dimethyl sulfoxide (DMSO, Sigma-Aldrich, St. Louis, MO, cat. D2650) at 800-fold the tested concentration and stored at -70 degrees C prior to their use. All drugs and investigational agents were tested over a range starting from a high concentration at or near the clinical Cmax and decreasing in half-log increments. If the clinical Cmax for an agent had not been determined, the highest concentration tested was 10 microM.
Cell Culture. All cells were maintained in an incubator at 37 degrees C and 5% CO2 with 95% humidity. The PDC lines were cultured according to standard operating procedures established by the NCI PDMR (https://pdmr.cancer.gov/sops/default.htm). Briefly, all PDCs were thawed and cultured in Matrigel-coated flasks prepared with a working solution of 1X Ham's F-12 nutrient mix, without supplementation (Invitrogen, Waltham, MA, cat. 11765054), 100 U/mL penicillin-streptomycin (Invitrogen, cat. 15140122), and 2.5% Matrigel (Corning Inc., Corning, NY, cat. 354248) for the first three passages. All PDCs were cultured in complete DMEM/F-12 media containing advanced DMEM/F-12 (Invitrogen, cat. 12634028), 4.9% defined fetal bovine serum, heat inactivated (HyClone Laboratories Inc., Logan, UT, cat. SH30070.03HI), 389 ng/mL hydrocortisone (Sigma-Aldrich, cat. H4001), 9.7 ng/mL human EGF recombinant protein (Invitrogen, cat. PHG0313), 23.4 microg/mL adenine (Sigma-Aldrich, cat. A2786), 97.3 U/mL penicillin-streptomycin (Invitrogen, cat. 15140122), 1.9 mM L-glutamine (Invitrogen, cat. 25030081), and 9.7 microM Y-27632 dihydrochloride (Tocris Bioscience, Bristol, United Kingdom, cat. 1254). The PDCs were cultured in complete DMEM/F12 media without 9.7 microM Y-27632 dihydrochloride for at least two passages prior to the screen. The established cell line HOP-62 was cultured in RPMI 1640 medium, HEPES (Invitrogen, cat. 22400105) with 10% defined fetal bovine serum (HyClone Laboratories Inc., cat. SH30070.03) and 2 mM L-glutamine (Invitrogen, cat. 25030081). The pooled donor HUVEC were cultured in endothelial cell growth medium 2 (PromoCell, Heidelberg, Germany, cat. C-22011) and the hMSC were cultured in mesenchymal stem cell growth medium 2 (PromoCell, cat. C-28009). For all experiments, HUVEC and hMSC were used at passages </=5, while the malignant cell lines were used at passages </=15. […]

[1] = second compound 0.1 µM, first compound 0.0316 µM
[2] = second compound 0.1 µM, first compound 0.1 µM
[3] = second compound 0.1 µM, first compound 0.316 µM
[4] = second compound 0.1 µM, first compound 1 µM
[5] = second compound 0.1 µM, first compound 3.16 µM
[6] = second compound 0.1 µM, first compound 10 µM
[7] = second compound 0.316 µM, first compound 0.0316 µM
[8] = second compound 0.316 µM, first compound 0.1 µM
[9] = second compound 0.316 µM, first compound 0.316 µM
[10] = second compound 0.316 µM, first compound 1 µM
[11] = second compound 0.316 µM, first compound 3.16 µM
[12] = second compound 0.316 µM, first compound 10 µM
[13] = second compound 1 µM, first compound 0.0316 µM
[14] = second compound 1 µM, first compound 0.1 µM
[15] = second compound 1 µM, first compound 0.316 µM
[16] = second compound 1 µM, first compound 1 µM
[17] = second compound 1 µM, first compound 3.16 µM
[18] = second compound 1 µM, first compound 10 µM
[19] = second compound 3.16 µM, first compound 0.0316 µM
[20] = second compound 3.16 µM, first compound 0.1 µM
[21] = second compound 3.16 µM, first compound 0.316 µM
[22] = second compound 3.16 µM, first compound 1 µM
[23] = second compound 3.16 µM, first compound 3.16 µM
[24] = second compound 3.16 µM, first compound 10 µM
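Note: drug exposure lasted seven days after spheroids formed for three days.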
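Throughout, for viability, T/C: percent of DMSO vehicle control viability which is 100%.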

COc1cc(Nc2ncc3c(n2)-c2ccc(Cl)cc2C(c2c(F)cccc2OC)=NC3)ccc1C(=O)O + C=CC(=O)N1CCN(c2nc(OCC3CCCN3C)nc3c2CCN(c2cccc4cccc(C)c24)C3)CC1CC#N
IC50 (second compound 0.0316 µM): < 31.6 nM | IC50 (second compound 0.1 µM): < 31.6 nM | IC50 (second compound 0.316 µM): < 31.6 nM | IC50 (second compound 1 µM): < 31.6 nM | IC50 (second compound 3.16 µM): < 31.6 nM | viability, T/C (second compound 0.0316 µM, first compound 0.0316 µM): 28.8% | viability, T/C (second compound 0.0316 µM, first compound 0.1 µM): 25.6% | viability, T/C (second compound 0.0316 µM, first compound 0.316 µM): 28.7% | viability, T/C (second compound 0.0316 µM, first compound 1 µM): 29.4% | viability, T/C (second compound 0.0316 µM, first compound 3.16 µM): 26.1% | viability, T/C (second compound 0.0316 µM, first compound 10 µM): 17.1% | viability, T/C [1]: 24.8% | viability, T/C [2]: 25.7% | viability, T/C [3]: 26.8% | viability, T/C [4]: 27.2% | viability, T/C [5]: 23.5% | viability, T/C [6]: 15.9% | viability, T/C [7]: 18.8% | viability, T/C [8]: 17.9% | viability, T/C [9]: 23.5% | viability, T/C [10]: 23.3% | viability, T/C [11]: 21.1% | viability, T/C [12]: 14.4% | viability, T/C [13]: 11.2% | viability, T/C [14]: 10.8% | viability, T/C [15]: 14.9% | viability, T/C [16]: 15.4% | viability, T/C [17]: 14.2% | viability, T/C [18]: 10.3% | viability, T/C [19]: 0.22% | viability, T/C [20]: 0.2% | viability, T/C [21]: 0.13% | viability, T/C [22]: 1.99% | viability, T/C [23]: 0.44% | viability, T/C [24]: 0.41%

COc1cc2nccc(Oc3ccc(NC(=O)C4(C(=O)Nc5ccc(F)cc5)CC4)cc3)c2cc1OC + COc1cc2nc(C)nc(NC(C)c3cc(N)cc(C(F)(F)F)c3)c2cc1OC1CCOC1
IC50 (second compound 0.1 µM): 2310 nM | IC50 (second compound 0.316 µM): 2440 nM | IC50 (second compound 1 µM): 1590 nM | IC50 (second compound 3.16 µM): 996 nM | IC50 (second compound 10 µM): < 31.6 nM | viability, T/C [1]: 102% | viability, T/C [2]: 110% | viability, T/C [3]: 101% | viability, T/C [4]: 77.8% | viability, T/C [5]: 40% | viability, T/C [6]: 21.1% | viability, T/C [7]: 99.4% | viability, T/C [8]: 99.4% | viability, T/C [9]: 92% | viability, T/C [10]: 75% | viability, T/C [11]: 42.5% | viability, T/C [12]: 23.7% | viability, T/C [13]: 102% | viability, T/C [14]: 86.9% | viability, T/C [15]: 88.6% | viability, T/C [16]: 60.4% | viability, T/C [17]: 33.2% | viability, T/C [18]: 17.6% | viability, T/C [19]: 73.6% | viability, T/C [20]: 72.9% | viability, T/C [21]: 64.6% | viability, T/C [22]: 51.8% | viability, T/C [23]: 22.2% | viability, T/C [24]: 11.8% | viability, T/C (second compound 10 µM, first compound 0.0316 µM): 45.1% | viability, T/C (second compound 10 µM, first compound 0.1 µM): 31.1% | viability, T/C (second compound 10 µM, first compound 0.316 µM): 36.6% | viability, T/C (second compound 10 µM, first compound 1 µM): 31.9% | viability, T/C (second compound 10 µM, first compound 3.16 µM): 15.8% | viability, T/C (second compound 10 µM, first compound 10 µM): 0.83%
